Data on 1 molecule can be found in US20210214368A1, “COMPOUNDS FOR THIOL-TRIGGERED COS AND/OR H2S RELEASE AND METHODS OF MAKING AND USING THE SAME” (University of Oregon, priority 2018, published 2021).

One data set concerns HeLa cells. Nature of the data set: Imaging of H2S delivery in HeLa cells with SF7-AM probe. The settings on record: compound 50 μM 30 minutes, SF7-AM 5 μM. The data set is classed as cell-based. The method, then:
In this example, H2S delivery from sulfenyl thiocarbamate compound 306a in HeLa cells was evaluated. HeLa cells were treated with Hoechst dye and SF7-AM (5 μM) in DMEM only for 5 minutes and then with DMEM only for 30 minutes (top row) or DMEM containing the compound (50 μM) for 30 minutes (bottom row). Cells were then washed with PBS and cell images were taken in PBS using a fluorescent microscope.

The nature of data set [1]: Thiol-triggered H2S release in PBS containing CA (MB assay). The settings on record: compound 50 μM. The method, then: To evaluate thiol effects on COS/H2S release from cyclic perthiocarbamate compound embodiments, compound 306a (50 μM) was incubated in PBS (pH 7.4, 10 mM) containing Cys or GSH (up to 4.0 mM) and CA (25 μg/mL) and H2S release was monitored by MB assay. […] Additionally, other thiol triggers, such as cysteine, homocysteine, and N-acetyl cysteine, were combined with compound 306a to evaluate if they would trigger the compound to release H2S.
In this example, GSH-triggered H2S release from compound 900 was evaluated. […] To improve the H2S releasing capacity of ATB-346, compound 900 was made by reacting ATB-346 with chlorocarbonyl sulfenyl chloride reagent (see Scheme 9). The resultant compound 900 was then added to PBS containing GSH and CA.
Release of H2S from compound 404c (25 μM) in the presence of L-cysteine or reduced glutathione (GSH) (500 μM, 20 equiv.) measured by the spectrophotometric methylene blue assay, with results shown in FIG. 17.
In this example, additional compounds, such as cyclic sulfenyl thiocarbamate compounds 306a-306e, were evaluated for their ability to release H2S upon exposure to a biological thiol, cysteine.
With the hybrid NSAID in hand, COS/H2S release in aqueous buffer was evaluated.

Take `O=c1nc(-c2ccccc2)ss1` [Compound 306a]: the “SF7-AM (H2S probe) fluorescence in HeLa cells” value in the data set with HeLa cells is given as “strong SF7-AM fluorescent signal”. Moreover, the “GSH-dependent H2S release” value in data set [1] (GSH up to 4.0 mM, CA 25 μg/mL, PBS pH 7.4) is reported as “GSH-dependent H2S release was observed”. For the same molecule, in data set [1] (PBS, CA), the “H2S release in the presence of thiols GSH, Cys, Hcy, and NAC” value is recorded as “H2S release was observed”; the “H2S release with GSSG, Lys, Ser, Gly, S2O3^2−, SO3^2−, SO4^2−” value is “did not activate the compound and minimal H2S release was observed”; the “H2S release with penicillamine” value was “minimal H2S release”. Further, the “H2S release in the absence of thiol trigger” value in data set [1] (PBS, no thiol) is reported as “Negligible H2S release was observed”.
